Assay results as given in PMC11912270, “Synthesis and SAR Studies of Acyl-Thiourea Platinum(II) Complexes Yield Analogs with Dual-Stage Antiplasmodium Activity” (ACS Medicinal Chemistry Letters, 2025).
“And” between values parts separate entries of the source, which are not always exact repeats. Equal values may be shown once. Read-outs that look alike come from different tables or passages of the source.

How the values were obtained:
[1] = Kinetic solubility by HPLC (pH 6.5); settings: pH 6.5; for Aqueous solubility pH 6.5: kinetic, HPLC
Procedure: 1.7. Kinetic solubility by HPLC (pH 6.5)
Solubility was measured at pH 6.5 using an adapted miniaturized shake-flask method, in 96-well plate format.4,5 Briefly, 4 µL of a 10 mM stock in DMSO was added to a 96-well plate and evaporated using a GeneVac system. Phosphate buffer pH 6.5 was then added to the wells […]
At the end of this incubation, the […]
in the analysis plate. Analysis was then performed by HPLC-DAD and the solubility of each sample was determined from the corresponding calibration curve. […]

Cyclic voltammetry = format: physicochemical; settings: for Epa1: anodic peak potential; for Epa1 / Epc1: 0.1 V/s; for Epc1: cathodic peak potential
Text: It is known that Fe^2+/Fe^3+ redox chemistry has an important role in the bioactivity of ferrocene derivatives.[33] The production of reactive oxygen species (ROS) is one of the modes of action of ferroquine and other ferrocene derivatives[34] and is linked to the correlation between their bioactivity and electrochemical behavior. We determined whether a similar correlation could be made for the mixed-ligand platinum(II) complexes reported herein given that metal centers have the potential to be oxidized and reduced. The electrochemistry of the complexes was studied using cyclic voltammetry (CV), which uses a triangular potential waveform. The CV experiments were performed in either dry MeOH or DMF containing tetrabutylammonium chloride (TBACl) as the supporting electrolyte. The working electrode was glassy carbon with a platinum wire as the counter electrode and Ag/AgCl as the reference. The anodic (Epa) and cathodic (Epc) peak potentials at 0.1 V/s and half-wave potentials (E1/2) were measured (Table 3). All of the tested complexes undergo reversible one-electron Pt^2+/Pt^+ reductions (Figures S38–S46). Complexes C2, C4, and C8 undergo a second nonreversible reduction (Epc2), which is most likely ligand-based and linked to reductions of the substituent on the bpy. Looking at SAR2, the more electron-withdrawing the substituent, the […] the E1/2 (V vs Fe/Fe^+) value was. This trend was expected, as a more electron-withdrawing substituent reduces the electron density around the metal center, making it easier for the metal to be reduced from Pt^2+ to Pt^+. […] This is also the case for other bpy-containing platinum(II) complexes that only undergo reductions.[35],[36] […]
For the cyclic voltammetry experiments a solution of the test compound (1 x 10-3) in DMSO (3 mL) is added to the electrolyte solution (0.1 M tetrabutylammonium chloride (TBACl) in DMSO). The electrochemical measurements were obtained using a Basi Epsilon Eclipse Electrochemical Analyzer Potentiostat and the CV graphs were generated using Excel. The working electrode was glassy carbon (GC) with platinum wire as the counter electrode (CE) and Ag/AgCl as the reference. […]

[2] = test system: early-stage gametocytes (NF54-PfS16-GFP-Luc); assay: Luciferase reporter assay, early-stage gametocytes; format: cell-based, Plasmodium falciparum; settings: for EG (% inhibition) 1 µM / EG (% inhibition) 5 µM: single biological repeat; for IC50: early (II/III) gametocytes, luciferase, 48 h, read-out: EG IC50
Procedure: (§1) All the complexes were tested for their early- and late-stage gametocyte activity in a dual-point assay (1 μM and 5 μM). […]
(§2) 1.5.In vitro activity against gametocyte stages
(§3) PfNF54 gametocytes were prepared and isolated according to the method reported by Reader […]
(§4) The in vitro gametocyte activity of the synthesized complexes was determined using a luciferase reporter line-based assay.
(§5) NF54-PfS16-GFP-Luc parasites were used for the stage-specific assessment of gametocytocidal activity. Early-stage gametocyte (stage I-III) experiments were performed on day 5 (representing >90% of early-stage and late-stage gametocyte (stages IV/V) experiments were performed on day 10. In each experiment, assays were set up with the use of 2-3% […]
(§6) Luciferase activity was determined in 30 µL parasite lysates by adding luciferin substrate (30 µL) (Promega Luciferase Assay System) at room temperature. […]

ABS parasites = assay: Dual point activity against ABS parasites; format: cell-based, Plasmodium falciparum; settings: single biological repeat
Text: Table S2: Dual point activity of platinum(II) complexes against ABS parasites, early- and late-
stage gametocytes. Values are averaged from technical triplicates performed for a single

[3] = test system: Chinese hamster ovary (CHO) cell line; assay: MTT cytotoxicity assay; format: cell-based; settings: cytotoxicity, MTT, 48 h; N, n = 1, 3; read-out: CHO IC50
Procedure: 1.6.In vitro cytotoxicity assay
A 3-(4,5-dimethylthiazol-2-yl)-2,5-diphenyltetrazoliumbromide (MTT) assay was used to screen the metal complexes against the mammalian Chinese hamster ovarian (CHO) cell line.
A stock solution of each compound (2 mg/mL) in DMSO was prepared and kept at -20 °C until needed. Emetine was used as a reference drug. A starting concentration of 100 µg/mL was used, and serially diluted ten-fold using a complete medium to give the lowest concentration of 0.001 µg/mL (6 dilutions). The plates containing the CHO cells under drug pressure were […]
Plates containing the drug and cell suspension were developed by adding 25 μL of sterile MTT (Thermo Fisher Scientific) (25 µL) to each well, followed by 4 h […]
of incubation at room temperature in the dark. The plates were then centrifuged, and the supernatant was removed via aspiration. Sample absorbance was read at a wavelength of 540 […]
analysis via GraphPad Prism v.4.0 software. The IC50 values were determined for each compound were determined from the dose-response curves. […]

PfNF54 ABS parasites = assay: SYBR Green I-based proliferative assay, PfNF54 ABS parasites; format: cell-based, Plasmodium falciparum; settings: for IC50: ABS, SYBR Green I, 96 h, mean ± S.E., N = 3 (no S.E.: N = 1)
Procedure: (§7) The parasites were incubated under drug […]
(§8) incubation, parasite survival was determined by adding equal volumes of parasite suspension (100 µL) and SYBR Green I lysis buffer (0.2% µL/mL of 10 000x SYBR Green I, 20 mM Tris-HCl, pH 7.5, 5 mM EDTA, 0.008% saponin (w/v) and 0.08% Triton x-100). This was incubated for 1 hour at room temperature in the dark. […]

[4] = test system: late-stage gametocytes (NF54-PfS16-GFP-Luc); assay: Luciferase reporter assay, late-stage gametocytes; format: cell-based, Plasmodium falciparum; settings: for LG (% inhibition) 1 µM / LG (% inhibition) 5 µM: single biological repeat
Procedure: as §1, §2, §3, §4, §5, §6

[5] = Single-point microsomal metabolic stability, human; format: in vitro ADME; settings: human liver microsomes, 1 µM
Procedure: (§9) 1.8. Microsomal metabolic stability studies […]
(§10) rat IGS, Xenotech), and mouse (male mouse CD1, Xenotech) liver microsomes (0.4 mg/ml) for 30 min at 37 °C. Reactions were quenched by adding ice-cold acetonitrile containing […]
(§11) disappearance of the parent compound. Half-life, clearance, and hepatic excretion ratios were determined using standard equations.6,7 Propranolol. […]

[6] = Single-point microsomal metabolic stability, mouse; format: in vitro ADME; settings: mouse liver microsomes, 1 µM
Procedure: as §9, §10, §11

PfK1 ABS parasites = format: cell-based, Plasmodium falciparum; settings: for IC50: ABS, SYBR Green I, 96 h, mean ± S.E.; for RI (resistance index): RI = PfK1 IC50/PfNF54 IC50
Procedure: as §7, §8

[7] = late (IV/V) gametocytes, luciferase, 48 h, read-out: LG IC50

| SMILES | Epa1 (Cyclic voltammetry) | Epc1 (Cyclic voltammetry) | EG (% inhibition) 1 µM [2] | EG (% inhibition) 5 µM [2] | IC50 [2] | ABS (% inhibition) 1 µM (ABS parasites) | ABS (% inhibition) 5 µM (ABS parasites) | IC50 [3] | IC50 (PfNF54 ABS parasites) | LG (% inhibition) 1 µM [4] | LG (% inhibition) 5 µM [4] | IC50 [4, 7] | further results |
| --- | --- | --- | --- | --- | --- | --- | --- | --- | --- | --- | --- | --- | --- |
| CC(C)(C)c1cc[n+]2c(c1)-c1cc(C(C)(C)C)cc[n+]1[Pt-2]21[O+]=C(c2ccccc2)N=C(N(CCO)CCO)[S]1.[Cl-] [C1] | –1.233 V | –1.127 V |  |  |  |  |  |  |  |  |  |  | Aqueous solubility pH 6.5 [1]: 95 μM |
| OCCN(CCO)C1=NC(c2ccccc2)=[O+][Pt-2]2([S]1)[n+]1ccc(O)cc1-c1cc(O)cc[n+]12.[Cl-] [C5] |  |  | 0.0 % inhibition | 0.0 % inhibition | > 20 µM | 0.0 % inhibition | 11.0 % inhibition | > 50 µM | > 5 µM | 0.0 % inhibition | 0.5 % inhibition | > 20 µM |  |
| OCCN(CCO)C1=NC(c2ccccc2)=[O+][Pt-2]2([S]1)[n+]1ccc(Cl)cc1-c1cc(Cl)cc[n+]12.[Cl-] [C7] |  |  | 2.2 % inhibition | 4.1 % inhibition | > 20 µM | 2.7 % inhibition | 57.3 % inhibition | > 50 µM | > 5 µM | 0.0 % inhibition | 0.4 % inhibition | > 20 µM |  |
| OCCN(CCO)C1=NC(c2ccccc2)=[O+][Pt-2]2([S]1)[n+]1ccc(C(F)(F)F)cc1-c1cc(C(F)(F)F)cc[n+]12.[Cl-] [C8] | –0.710 V | –0.607 V | 26.2 % inhibition | 50.0 % inhibition | > 20 µM | 10.6 % inhibition | 29.9 % inhibition | > 50 µM | > 5 µM | 80.6 % inhibition | 85.8 % inhibition | 0.38 µM | Microsomal metabolic stability (% remaining after 30 min) Human [5]: 47 % remaining; Microsomal metabolic stability (% remaining after 30 min) Mouse [6]: 46 % remaining; IC50 ([4]; gametocyte stage not specified, read-out: gametocidal activity IC50): < 5 µM; E1/2 (Cyclic voltammetry; half-wave potential corrected to ferrocene): –1.076 V vs Fe/Fe^+; Epc2 (Cyclic voltammetry; second nonreversible reduction): –1.272 V vs Ag/Ag^+ |
| CNC(=O)c1cc[n+]2c(c1)-c1cc(C(=O)NC)cc[n+]1[Pt-2]21[O+]=C(c2ccccc2)N=C(N(CCO)CCO)[S]1.[Cl-] [C9] |  |  | 0.0 % inhibition | 4.5 % inhibition | > 20 µM | 0.0 % inhibition | 24.5 % inhibition | > 50 µM | > 5 µM | 0.0 % inhibition | 2.4 % inhibition | > 20 µM |  |
| COC(=O)c1cc[n+]2c(c1)-c1cc(C(=O)OC)cc[n+]1[Pt-2]21[O+]=C(c2ccccc2)N=C(N(CCO)CCO)[S]1.[Cl-] [C10] |  |  | 3.7 % inhibition | 4.2 % inhibition | > 20 µM | 7.11 % inhibition | 17.3 % inhibition | > 50 µM | > 5 µM | 0.6 % inhibition | 6.1 % inhibition | > 20 µM | Aqueous solubility pH 6.5 [1]: <5 μM |
| Cc1ccc(C2=[O+][Pt-2]3([S]C(N(CCO)CCO)=N2)[n+]2ccc(C(C)(C)C)cc2-c2cc(C(C)(C)C)cc[n+]23)cc1.[Cl-] [C11] | –1.239 V | –1.128 V |  |  |  |  |  |  |  |  |  |  |  |
| COc1ccc(C2=[O+][Pt-2]3([S]C(N(CCO)CCO)=N2)[n+]2ccc(C(C)(C)C)cc2-c2cc(C(C)(C)C)cc[n+]23)cc1.[Cl-] [C12] | –1.247 V | –1.133 V |  |  |  |  |  |  |  |  |  |  |  |
| CC(C)(C)c1ccnc(-c2cc(C(C)(C)C)ccn2)c1.OCCN(CCO)C(=S)N=C([O][Pt+])c1ccc(Cl)cc1.[Cl-] [C13] | –1.233 V | –1.119 V |  |  |  |  |  |  |  |  |  |  |  |
| Cc1ccc(-c2ccc(C)cn2)nc1.OCCN(CCO)C(=S)N=C([O][Pt+])c1ccccc1.[Cl-] [C14] |  |  | 0.0 % inhibition | 0.0 % inhibition |  |  |  | > 50 µM | 0.241 ± 0.04 µM | 39.4 % inhibition | 56.6 % inhibition |  | fold improvement in PfNF54 activity compared to C2 (PfNF54 ABS parasites; vs 4,4'-dimethyl complex C2): 5 fold and 6 fold; IC50 (PfK1 ABS parasites): 0.886 ± 0.059 µM; RI (resistance index) (PfK1 ABS parasites): 3.7 |
| Cc1cccc(-c2cccc(C)n2)n1.OCCN(CCO)C(=S)N=C([O][Pt+])c1ccccc1.[Cl-] [C15] |  |  | 2.8 % inhibition | 43.9 % inhibition | 9.51 µM | 0.0 % inhibition | 89.6 % inhibition | 5 µM | 2.91 µM | 54.8 % inhibition | 84.0 % inhibition | 1.41 µM | fold decrease in PfNF54 activity compared to C2 (PfNF54 ABS parasites; vs 4,4'-dimethyl complex C2): 2 fold; IC50 (PfK1 ABS parasites): 2.76 µM; RI (resistance index) (PfK1 ABS parasites): 0.9 |
| COC(=O)[C@H]1[C@H]2C[C@@H]3c4[nH]c5cc(OC)ccc5c4CCN3C[C@H]2C[C@@H](OC(=O)c2cc(OC)c(OC)c(OC)c2)[C@@H]1OC [Reserpine, reference compound] |  |  |  |  |  |  |  |  |  |  |  |  | solubility at 24 h ([1]; phosphate buffer): < 5 µM |
